# Assay results: US20260265771A1, “METHODS OF INCREASING THE REGENERATION EFFICIENCY IN PLANTS” (Institute of Genetics and Developmental Biology Chinese …, priority 2022, published 2026)
# “Also recorded” adds a separate entry of the source.
# Experiments:
# wheat = test: Root and shoot growth of wheat; assay type: in vivo; conditions: 100 nM TaREF1 vs absence
# Text: (a) photos of wheat grown in the presence of 100 nm TaREF1, or in the absence of TaREF1 (mock). (b) primary root length in wheat grown in the presence of 100 nm TaREF1, or in the absence of TaREF1 (mock). (c) shoot length of wheat grown in the presence of 100 nm TaREF1, or in the absence of TaREF1 (mock).
# The wheat SIPEP (REF1) orthologue (TaREF1) was investigated to establish whether REF1 can increase the regenerative capacity in wheat.
# [1] = system: Chinese Spring and JM22 wheat; test: Callus formation of wheat immature embryos on CIM; assay type: cell-based; conditions: exogenous TaREF1
# Method: (a) photos of Chinese Spring wheat grown in the presence or 0 nM, 0.01 nM or 0.1 nM TaREF1. (b) immature embryos of Chinese Spring were cultured on CIM containing indicated concentrations of TaREF1, and callus phenotype was scored at 14 days after incubation on CIM. Callus formation capacity was represented by the percentage of immature embryo explants with regenerated embryonic calli. Data are mean±SD of three independent experiments.
# (§1) TaREF1 was also shown to increase the callus formation capacity of Chinese spring wheat when applied exogenously (FIG. 43) and JM22 wheat (FIG. 54).
# [2] = system: Chinese Spring, Kn199 and JM22 wheat; test: Shoot regeneration of wheat; assay type: cell-based
# Method: (a) photos of Kn199 wheat grown in the presence of 0.01 nM or 1 nM TaREF1 or absence of TaREF1 (mock). (b) photos of Kn199 wheat grown in the presence of 0.01 nM or 1 nM TaREF1 or absence of TaREF1.
# as §1
# Shoot regeneration frequency was established by calculating the average number of shoots, in the context of the present invention shoot regenerative capacity refers to the number of shoots per explant in each condition.
# mature seeds of ZH11 = test: Callus formation of rice mature seeds on CIM; assay type: cell-based, Oryza sativa; conditions: for callus formation capacity, increase: 20 days
# Method: Mature seeds of ZH11 were cultured on CIM containing indicated concentrations of OsREF1. (a) photos of ZH11 grown in presence of 1 nM and 10 nM OsREF1 or in the absence of OsREF1 (mock). (b) callus phenotype was scored 20 days after incubation on CIM. Callus formation capacity was represented by the percentage of mature seed explants with regenerated embryonic calli. Data are mean±SD of three independent experiments.
# Mature seeds of ZH11 were cultured on CIM containing indicated concentrations of OsREF1 (1 nM and 10 nM). As shown in FIG. 27A calluses formed that were larger in the presence of OsREF1 than in the absence of OsREF1.
# [3] = system: ZH11, Nipponbare and 9311 rice; test: Shoot regeneration of rice on SIM; assay type: cell-based, Oryza sativa; conditions: for shoot regeneration: SIM, 10 nM; for shoot regeneration capacity, increase: 10 nM OsREF1 vs absence
# Method: ZH11 was cultured on SIM containing indicated concentrations of OsREF1. (a) photos of ZH11 grown in presence of 0 nM and 10 nM OsREF1. (b) shoot regeneration capacity of ZH11 grown in with either 0 nM or 10 nM OsREF1.
# Nipponbare was cultured on SIM containing indicated concentrations of OsREF1. (a) photos of nipponbare grown in presence of 0 nM and 10 nM OsREF1. (b) shoot regeneration capacity of nipponbare grown in with either 0 nM or 10 nM OsREF1.
# 9311 rice was cultured on SIM containing indicated concentrations of OsREF1. (a) photos of 9311 rice grown in presence of 0 nM and 10 nM OsREF1. (b) shoot regeneration capacity of 9311 rice grown in with either 0 nM or 10 nM OsREF1.
# Shoot regeneration was investigated in ZH11 and Nipponbare Japonica rice as well as 9311 indica rice. OsREF1 promoted shoot generation in all three of these rice varieties.
# [4] = system: wild allotetraploid rice (L-04); test: Growth (primary root length) of wild allotetraploid rice; assay type: in vivo; conditions: L-04, 10 nM OsREF1 vs mock
# Method: L-04 rice was grown in the presence of 10 nM OsREF1 or in the absence of OsREF1 (mock). (a) photos of L-04 rice grown in presence the of 10 nM OsREF1 or absence of OsREF1 (mock). (b) primary root length of L-04 rice grown in the presence of 10 nM OsREF1 or absence of OsREF1 (mock).
# [5] = system: wild allotetraploid rice (L-04); test: Shoot regeneration of wild allotetraploid rice; assay type: cell-based
# Method: (a) images of L-04 rice grown in the presence of 10 nM OsREF1 or absence of OsREF1 (mock). (b) regeneration frequency of L-04 rice grown in the presence of 10 nM OsREF1 or absence of OsREF1.
# [6] = system: seeds of wild allotetraploid rice L-04; test: Callus formation of wild allotetraploid rice seeds on CIM; assay type: cell-based; conditions: for callus formation capacity, increase: vs absence
# Method: L-04 rice was grown in the presence of 10 nM or 1 nM OsREF1 or in the absence of OsREF1 (mock). (a) photos of L-04 rice grown in presence the of 10 nM, 1 nM OsREF1 or absence of OsREF1 (mock). (b) callus formation capacity of L-04 rice grown in the presence of 10 nM, 1 nM OsREF1 or absence of OsREF1 (mock).
# Seeds of wild allotetraploid rice L-04 were cultured on CIM containing indicated concentrations of OsREF1 (1 nM and 10 nM) for 20 days.
# [7] = system: leaves of peach cultivar GF677; test: Callus formation of peach leaves on CIM; assay type: cell-based
# Method: (a) photos of peach cultivar GF677 grown on a CIM in the presence of 100 nM PpREF1 and in the absence of PpREF1 (mock). (b) callus formation capacity of peach cultivar […] grown on a CIM in the presence 100 nM PpREF1 and in the absence of PpREF1 (mock) after 24 days. Callus formation capacity was represented by the percentage of leaves explants with regenerated embryonic calli. Data are mean±SD of three independent experiments.
# Leaves of peach cultivar GF677 were cultured on CIM containing indicated concentrations of PpREF1, and callus phenotype was scored at 24 days after incubation on CIM. Callus formation capacity was represented by the percentage of leaves explants with regenerated embryonic calli. Data are mean±SD of three independent experiments. Callus formation capacity was increased by 10-fold in peach cultivar GF677 leaves grown in the presence of 100 nM PpREF1 compared to leaves grown in the absence of PpREF1.
# [8] = system: hypocotyl explants of cotton; test: Callus formation of cotton hypocotyl explants on CIM; assay type: cell-based
# Method: (a) photos of cotton grown in the presence of 0.1 nM, 1 nM 10 nM, 100 nM 500 nM GaREF1 or absence of GaREF1 (mock), (b) Hypocotyl explants of cotton were cultured on callus-inducing medium (CIM) containing indicated concentrations of GaREF1, and callus phenotype was scored at 14 days after incubation. Box plots represent the distribution of projected callus area. The projected area of callus was quantified by Image J. Individual values (black dots) are shown and error bars represent SD from three independent experiments. ***P<0.001, **P<0.01, *P<0.05 (Student's t-test).
# The cotton SIPEP (REF1) orthologue (GaREF1) was investigated to establish its effect on cotton regenerative capacity.
# sunflower explants = test: Shoot regeneration of sunflower cotyledon explants; assay type: cell-based
# Method: (A) The shoot regenerative capacity was represented by the relative frequency of explants with the regenerated shoots. (B) The shoot regenerative capacity was represented by the number of explants with different number of regenerated shoots. Bars show mean±SD. ***P<0.001, **P<0.01, *P<0.05 (Student's t-test). (C) photos of sunflower plants grown in the presence of 1 nM HaREF1, 10 nM HaREF1 or absence of HaREF1 (mock).
# The sunflower SIPEP (REF1) orthologue (HanREF1) was investigated to establish its effect on sunflower regenerative capacity.
# For the regeneration protocol we referred to Radonic et al., 2015. The explant used in the sunflower regeneration assay was cotyledon.
# Shoot regeneration frequency was established by calculating the average number of shoots, in the context of the present invention shoot regenerative capacity refers to the number of shoots per explant in each treatment.
# [9] = system: young embryos of B104 and Chang 7-2; test: Shoot regeneration of maize young embryos; assay type: cell-based
# Method: Young embryos of B104 and Chang 7-2 were treated with 0, 0.1 or 1 nM of ZmREF1. For both B-104 and Chan 7-2 shoot regeneration frequency was increased when ZmREF1 was applied, for B-104 this was greatest at 1 nM, however, for Chan 7-2 this was greatest at 0.1 nM, as shown in FIG. 52.
# pepper roots = test: Root hair formation in pepper; assay type: in vivo, Capsicum annuum; conditions: 0, 10 and 100 nM CaREF1
# Text: The pepper SIPEP (REF1) orthologue (CaREF1) was investigated to establish whether CaREF1 can increase the regenerative capacity of pepper (Capsicum annuum).
# [10] = system: pepper cotyledon explants; test: Callus formation of pepper cotyledon explants on CIM; assay type: cell-based, Capsicum annuum; conditions: CIM, 0, 1 and 10 nM CaREF1
# Method: Cotyledon explants were cultured on callus-inducing medium (CIM) containing indicated concentrations of CaREF1. (a) photos of cotelydon explants grown with 0 nM, 1 nM and 10 nM CaREF1. (b) relative callus area of cotelydon explants grown with 0 nM, 1 nM and 10 nM CaREF1. Box plots represent the distribution of projected callus area. The projected area of callus was quantified by Image J. Individual values (black dots) are shown and error bars represent SD from three independent experiments. **P<0.01, *P<0.05 (Student's t-test).
sequence,measurement,setting,value
AVRRPRPPGNPREGRGGGGGSHN (listed as Triticum aestivum) [TaREF1],root length,wheat,increased; also recorded: promotes root and shoot growth
same,shoot length,wheat,increased; also recorded: promotes root and shoot growth
same,callus formation capacity,[1]; Chinese spring wheat,increase
same,callus formation capacity,[1]; JM22 wheat,increase; also recorded: promotes callus formation
same,shoot regeneration,[2]; Chinese Spring wheat,promotes shoot regeneration
same,shoot regeneration,[2]; JM22 wheat,promotes shoot regeneration
same,shoot regeneration,[2]; Kn199 wheat,promotes shoot regeneration
DDSKPTGPGAPAEGSGGDGGAIH (listed as Oryza sativa) [OsREF1],"callus formation capacity, increase","mature seeds of ZH11; ZH11, 1 nM OsREF1 vs absence",~ 2 fold
same,"callus formation capacity, increase","mature seeds of ZH11; ZH11, 10 nM OsREF1 vs absence",~ 3 fold
same,callus formation,"mature seeds of ZH11; ZH11 Japonica rice, presence vs absence of OsREF1",larger; also recorded: promotes callus formation
same,shoot regeneration,[3]; 9311 indica rice,promotes shoot regeneration
same,"shoot regeneration capacity, increase",[3]; 9311 rice,~ 3.5 fold
same,shoot regeneration,[3]; Nipponbare Japonica rice,promotes shoot regeneration
same,"shoot regeneration capacity, increase",[3]; Nipponbare rice,~ 4 fold
same,shoot regeneration,[3]; ZH11 Japonica rice,promotes shoot regeneration
same,"shoot regeneration capacity, increase",[3]; ZH11 rice,~ 4 fold
same,growth,[4],promotes the growth
same,primary root length,[4],significantly increased
same,"shoot regeneration frequency, increase","[5]; L-04, 10 nM OsREF1 vs absence",~ 12.2 fold
same,shoot regeneration,"[5]; L-04, 10 nM OsREF1 vs mock",promotes shoot regeneration
same,"callus formation capacity, increase","[6]; L-04, 1 nM OsREF1, 20 days",~ 7.4 fold
same,"callus formation capacity, increase","[6]; L-04, 10 nM OsREF1, 20 days",~ 8.9 fold
same,callus formation,"[6]; L-04, 1 or 10 nM OsREF1 vs mock",promotes callus formation
KRPRITLRAARPEISTGSGAQTN (listed as Prunus persica) [PpREF1],callus formation,"[7]; GF677, 100 nM PpREF1 vs mock",promotes callus formation
same,"callus formation capacity, increase","[7]; GF677 leaves, 100 nM PpREF1 vs absence, 24 days",10 fold
LPMVSLFTPKRPGTSAGSGPQIN (listed as Gossypium arboreum) [GaREF1],"relative callus area, concentration dependence",[8]; 0.1-500 nM GaREF1,increasing as concentration of GaREF1 is increased
same,relative callus area / callus formation,"[8]; presence vs absence of GaREF1, 14 days",increased; also recorded: promotes callus formation
RRLTRRPPPPRGPISSGGGGQTN (listed as Helianthus annuus) [HanREF1],"shoot regeneration, increase",sunflower explants; 1 nM HanREF1 vs absence,~ 2.1 fold
same,"shoot regeneration, increase",sunflower explants; 10 nM HanREF1 vs absence,~ 4.5 fold
same,shoot regeneration,sunflower explants; 1 or 10 nM vs mock,promotes shoot regeneration
RRPRPRPPDHAREGSGGNGGVHH (Zea mays) [ZmREF1],concentration with greatest shoot regeneration frequency,[9]; B-104,1 nM
same,shoot regeneration frequency,"[9]; B-104 and Chan 7-2, 0.1 or 1 nM ZmREF1 vs 0",increased; also recorded: promotes shoot regeneration
same,concentration with greatest shoot regeneration frequency,[9]; Chan 7-2,0.1 nM
TGRRRGRPPSRPGVGRGPPPENN (listed as Capsicum annuum) [CaREF1],root hair formation,pepper roots,promotes root hair formation
same,callus formation,[10],increased; also recorded: promotes callus formation
